The values below come from US20220363686A1 (AiCuris GmbH & Co. KG, priority 2018, published 2022).

Molecules are shown by their SMILES.

For one series, the system named is HBV. Briefly: Determination of HBV DNA from the supernatants of HepAD38 cells (anti-HBV activity). It counts as cell-based, hepatitis B virus. The settings on record: Hepatitis B virus, HePAD38, 144 h, HBV DNA in HepAD38 supernatant, day 6, qPCR; read-out: Cell Activity. Put shortly: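 HepAD38 cells (60,000/well) seeded in tetracycline-free medium to induce HBV, treated with half-log serial compound dilutions for 6 days at 37 °C. HBV DNA purified from filtered supernatant and quantified by real-time PCR against HBV plasmid standards; EC50 from relative copy numbers by non-linear regression.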
(In general: Quantitative PCR measures a nucleic acid by following its amplification.)

The target of series [1] is HBV core protein (C-terminal truncated core protein containing 149 amino acids of the N-terminal assembly domain) (UniProt P03146). The experiment in a line: Biochemical capsid assembly assay (fluorescence quenching). Also on record: rows headed: Assembly Activity; other: BODIPY-FL labelled core protein, assembly started with NaCl, read after 6 min. The settings on record: read-out: Assembly Activity; BODIPY-FL labelled core protein, assembly started with NaCl, read after 6 min. Put shortly:
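N-terminal assembly domain (residues 1–149) plus C-terminal Cys150, E. coli-expressed, BODIPY-FL-maleimide labelled, used at 1.0–2.0 μM in 50 mM HEPES pH 7.5 with 0.5% DMSO. Assembly started with NaCl ([…]); fluorescence quenching (ex 477/em 525 nm) read after 6 min. 8-point compound series; EC50 by non-linear regression.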

The nature of series [2]: Cell viability assay (AlamarBlue). The settings on record: human, HepAD38 cells.

Sequence of HBV core protein (C-terminal truncated core protein containing 149 amino acids of the N-terminal assembly domain) (P03146 whole entry, the tested form may be a part): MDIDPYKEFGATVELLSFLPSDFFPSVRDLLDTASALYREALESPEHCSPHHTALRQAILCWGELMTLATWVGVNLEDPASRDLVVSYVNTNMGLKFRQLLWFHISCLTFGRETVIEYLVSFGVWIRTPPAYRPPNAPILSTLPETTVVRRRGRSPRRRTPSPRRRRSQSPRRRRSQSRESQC

On to `O=C(NCCOC(F)F)c1cnn2c1CN(C(=O)c1cc3ccccc3[nH]1)CC2` [Example 54, N-[2-(difluoromethoxy)ethyl]-5-(1H-indole-2-carbonyl)-4H,5H,6H,7H-pyrazolo[1,5-a]pyrazine-3-carboxamide], for which, in the series with HBV, the EC50 lay within 1 to 10 µM. The IC50 in series [1] is under 5 µM. This molecule also returned a CC50 at 6 days in series [2] of over 10 µM.
As to `CNC(=O)c1cnn2c1CN(C(=O)c1cc3ccccc3[nH]1)CC2` [Example 100, 5-(1H-indole-2-carbonyl)-N-methyl-4H,5H,6H,7H-pyrazolo[1,5-a]pyrazine-3-carboxamide], the EC50 in the series on HBV is under 100 µM. In series [1], the IC50 lay in the range of 5 to 10 µM. This molecule gave a CC50 at 6 days in series [2] of over 10 µM.
The like results for `O=C(c1cc2ccccc2[nH]1)N1CCn2ncc(C(=O)N(CCOC(F)F)C3CC3)c2C1` [Example 90, N-cyclopropyl-N-[2-(difluoromethoxy)ethyl]-5-(1H-indole-2-carbonyl)-4H,5H,6H,7H-pyrazolo[1,5-a]pyrazine-3-carboxamide] were, in that order, under 1 µM, under 5 µM and over 10 µM.
In the same order, the values of `CN(Cc1ccccn1)C(=O)c1cnn2c1CN(C(=O)c1cc3ccccc3[nH]1)CC2` [Example 44, 5-(1H-indole-2-carbonyl)-N-methyl-N-[(pyridin-2-yl)methyl]-4H,5H,6H,7H-pyrazolo[1,5-a]pyrazine-3-carboxamide] are under 1 µM, under 5 µM and over 10 µM.
Consider `CN(C(=O)c1cnn2c1CN(C(=O)c1cc3ccccc3[nH]1)CC2)C1(COCCO)CC1` [Example 64, N-{1-[(2-hydroxyethoxy)methyl]cyclopropyl}-5-(1H-indole-2-carbonyl)-N-methyl-4H,5H,6H,7H-pyrazolo[1,5-a]pyrazine-3-carboxamide], for which, in the series on HBV, the EC50 is under 1 µM. For the same molecule, in series [1], the IC50 was under 5 µM. In series [2], this molecule gave a cytotoxic concentration (CC50) at 6 days of over 10 µM.
The like results for `Cc1c(F)ccc2[nH]c(C(=O)N3CCn4ncc(C(=O)N5CCCOCC56CC6)c4C3)cc12` [Example 108, 4-[5-(5-fluoro-4-methyl-1H-indole-2-carbonyl)-4H,5H,6H,7H-pyrazolo[1,5-a]pyrazine-3-carbonyl]-8-oxa-4-azaspiro[2.6]nonane] were, in that order, under 1 µM, under 5 µM and over 10 µM.
In the same order, the values of `O=C(NC1(c2ccccn2)CC1)c1cnn2c1CN(C(=O)c1cc3ccccc3[nH]1)CC2` [Example 61, 5-(1H-indole-2-carbonyl)-N-[1-(pyridin-2-yl)cyclopropyl]-4H,5H,6H,7H-pyrazolo[1,5-a]pyrazine-3-carboxamide] are under 1 µM, under 5 µM and over 10 µM.
In the same order, the values of `CN(C(=O)c1cnn2c1CN(C(=O)c1cc3c(Cl)cc(F)cc3[nH]1)CC2)C1(COC(F)F)CC1` [Example 25, 5-(4-chloro-6-fluoro-1H-indole-2-carbonyl)-N-{1-[(difluoromethoxy)methyl]cyclopropyl}-N-methyl-4H,5H,6H,7H-pyrazolo[1,5-a]pyrazine-3-carboxamide] are under 1 µM, under 5 µM and over 10 µM.
Turning to `COCC1(N(C)C(=O)c2cnn3c2CN(C(=O)c2cc4ccccc4[nH]2)CC3)CC1` [Example 9, 5-(1H-indole-2-carbonyl)-N-[1-(methoxymethyl)cyclopropyl]-N-methyl-4H,5H,6H,7H-pyrazolo[1,5-a]pyrazine-3-carboxamide], the EC50 in the series with HBV was under 1 µM. For the same molecule, the IC50 in series [1] is under 5 µM. Also, the cytotoxic concentration (CC50) at 6 days in series [2] is over 10 µM.
The like results for `CC(NS(=O)(=O)c1cnn2c1CN(C(=O)c1cc3ccccc3[nH]1)CC2)C(F)(F)F` (stereo not drawn) [Example 28, 5-(1H-indole-2-carbonyl)-N-(1,1,1-trifluoropropan-2-yl)-4H,5H,6H,7H-pyrazolo[1,5-a]pyrazine-3-sulfonamide] were, in that order, 1 to 10 µM, under 5 µM and over 10 µM.
For the molecule `O=C(c1cc2c(F)c(F)ccc2[nH]1)N1CCn2ncc(C(=O)N3CCC(O)CC34CC4)c2C1` (stereo not drawn) [Example 119, 4-[5-(4,5-difluoro-1H-indole-2-carbonyl)-4H,5H,6H,7H-pyrazolo[1,5-a]pyrazine-3-carbonyl]-4-azaspiro[2.5]octan-7-ol], in the series on HBV, the EC50 was under 1 µM. Further, the IC50 in series [1] was under 5 µM. In series [2], the CC50 at 6 days was over 10 µM.
The like results for `NS(=O)(=O)c1cnn2c1CN(C(=O)c1cc3ccccc3[nH]1)CC2` [Example 26, 5-(1H-indole-2-carbonyl)-4H,5H,6H,7H-pyrazolo[1,5-a]pyrazine-3-sulfonamide] were, in that order, under 1 µM, under 5 µM and over 10 µM.
In the same order, the values of `O=C(c1cc2ccccc2[nH]1)N1CCn2ncc(C(=O)N3CC4C(C3)C4(F)F)c2C1` (stereo not drawn) [Example 42, 2-(3-{6,6-difluoro-3-azabicyclo[3.1.0]hexane-3-carbonyl}-4H,5H,6H,7H-pyrazolo[1,5-a]pyrazine-5-carbonyl)-1H-indole] are under 1 µM, under 5 µM and over 10 µM.
As for `Cc1cc(F)cc2[nH]c(C(=O)N3Cc4c(C(=O)N[C@H](C)C(F)(F)F)cnn4CC3C)cc12` (stereo partly drawn) [Example 146, 5-(6-fluoro-4-methyl-1H-indole-2-carbonyl)-6-methyl-N-[(2R)-1,1,1-trifluoropropan-2-yl]-4H,5H,6H,7H-pyrazolo[1,5-a]pyrazine-3-carboxamide], the EC50 in the series with HBV is under 1 µM. Besides, the IC50 in series [1] was under 5 µM. This molecule registered a CC50 at 6 days in series [2] of over 10 µM.
In the same order, the values of `O=C(c1cc2ccccc2[nH]1)N1CCn2ncc(-c3cscn3)c2C1` [Example 66, 2-[3-(1,3-thiazol-4-yl)-4H,5H,6H,7H-pyrazolo[1,5-a]pyrazine-5-carbonyl]-1H-indole] are under 1 µM, under 5 µM and over 10 µM.
The like results for `O=C(c1cc2ccccc2[nH]1)N1CCn2ncc(C(=O)N3CCOC(F)(F)C3)c2C1` [Example 69, 2-[3-(2,2-difluoromorpholine-4-carbonyl)-4H,5H,6H,7H-pyrazolo[1,5-a]pyrazine-5-carbonyl]-1H-indole] were, in that order, under 1 µM, under 5 µM and over 10 µM.
The like results for `CN(C(=O)c1cnn2c1CN(C(=O)c1cc3ccccc3[nH]1)CC2)C1COC1` [Example 135, 5-(1H-indole-2-carbonyl)-N-methyl-N-(oxetan-3-yl)-4H,5H,6H,7H-pyrazolo[1,5-a]pyrazine-3-carboxamide] were, in that order, under 1 µM, under 5 µM and over 10 µM.
As to `CN(C(=O)c1cnn2c1CN(C(=O)c1cc3ccccc3[nH]1)CC2)C1(C)COC1` [Example 136, 5-(1H-indole-2-carbonyl)-N-methyl-N-(3-methyloxetan-3-yl)-4H,5H,6H,7H-pyrazolo[1,5-a]pyrazine-3-carboxamide], the EC50 with HBV was 1 to 10 µM. The IC50 in series [1] was under 5 µM. The half-maximal cytotoxic concentration (CC50) at 6 days in series [2] is over 10 µM.
The like results for `CCc1cc(F)cc2[nH]c(C(=O)N3CCn4ncc(C(=O)N(C)C5(CO)CC5)c4C3)cc12` [Example 14, 5-(4-ethyl-6-fluoro-1H-indole-2-carbonyl)-N-[1-(hydroxymethyl)cyclopropyl]-N-methyl-4H,5H,6H,7H-pyrazolo[1,5-a]pyrazine-3-carboxamide] were, in that order, under 1 µM, under 5 µM and over 10 µM.
The like results for `O=C(NC1(C(F)(F)F)CC1)c1cnn2c1CN(C(=O)c1cc3ccccc3[nH]1)CC2` [Example 101, 5-(1H-indole-2-carbonyl)-N-[1-(trifluoromethyl)cyclopropyl]-4H,5H,6H,7H-pyrazolo[1,5-a]pyrazine-3-carboxamide] were, in that order, under 1 µM, under 5 µM and over 10 µM.
As for `O=C(NC1(COC(F)F)CC1)c1cnn2c1CN(C(=O)c1cc3ccccc3[nH]1)CC2` [Example 97, N-{1-[(difluoromethoxy)methyl]cyclopropyl}-5-(1H-indole-2-carbonyl)-4H,5H,6H,7H-pyrazolo[1,5-a]pyrazine-3-carboxamide], in the series with HBV, the EC50 was under 1 µM. For the same molecule, in series [1], the IC50 was under 5 µM. Further, in series [2], the CC50 at 6 days was over 10 µM.
In the same order, the values of `C[C@@H](NC(=O)c1cnn2c1CN(C(=O)c1cc3c(Cl)cccc3[nH]1)CC2)C(F)(F)F` [Example 115, 5-(4-chloro-1H-indole-2-carbonyl)-N-[(2R)-1,1,1-trifluoropropan-2-yl]-4H,5H,6H,7H-pyrazolo[1,5-a]pyrazine-3-carboxamide] are under 1 µM, under 5 µM and over 10 µM.
The like results for `CC1Cn2ncc(C(=O)N[C@H](C)C(F)(F)F)c2CN1C(=O)c1cc2cc(F)c(Cl)cc2[nH]1` (stereo partly drawn) [Example 147, 5-(6-chloro-5-fluoro-1H-indole-2-carbonyl)-6-methyl-N-[(2R)-1,1,1-trifluoropropan-2-yl]-4H,5H,6H,7H-pyrazolo[1,5-a]pyrazine-3-carboxamide] were, in that order, under 1 µM, under 5 µM and over 10 µM.

In general, CC50 refers to the concentration giving 50% cytotoxicity. The low end stands for harm at low concentration, the high end for better tolerance by the cells.
